Experimental data: patent US20100204203A1, “Chemical Compounds 637: Pyridopyrimidinediones as PDE4 Inhibitors” (priority 2007, published 2010)

Biological target: recombinant Human Phosphodiesterase B2 (PDE4B2) (Homo sapiens, UniProt Q07343)
Assay: Human Phosphodiesterase B2 Radiometric Assay (yttrium silicate SPA beads, [3H]cyclic AMP)
Type: biochemical
Conditions: recombinant human PDE4B2, radiometric SPA assay, 8 nM [3H]cyclic AMP; read-out: PDE4B2 pIC50 (converted)
How it was run: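 Compounds were preincubated 30 min at 30 °C with 0.1 mg/mL PDE4B2 in 50 mM HEPES pH 7.5, 8.3 mM MgCl2, 1.7 mM EGTA, 0.01% Brij 35. Then 8 nM [3H]cAMP was added for 20 min, stopped with yttrium silicate SPA beads plus 18 mM ZnSO4 capturing product 5′AMP; pIC50 by curve fitting.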

Sequence of recombinant Human Phosphodiesterase B2 (PDE4B2) (Q07343 1-564 isoform Q07343-2): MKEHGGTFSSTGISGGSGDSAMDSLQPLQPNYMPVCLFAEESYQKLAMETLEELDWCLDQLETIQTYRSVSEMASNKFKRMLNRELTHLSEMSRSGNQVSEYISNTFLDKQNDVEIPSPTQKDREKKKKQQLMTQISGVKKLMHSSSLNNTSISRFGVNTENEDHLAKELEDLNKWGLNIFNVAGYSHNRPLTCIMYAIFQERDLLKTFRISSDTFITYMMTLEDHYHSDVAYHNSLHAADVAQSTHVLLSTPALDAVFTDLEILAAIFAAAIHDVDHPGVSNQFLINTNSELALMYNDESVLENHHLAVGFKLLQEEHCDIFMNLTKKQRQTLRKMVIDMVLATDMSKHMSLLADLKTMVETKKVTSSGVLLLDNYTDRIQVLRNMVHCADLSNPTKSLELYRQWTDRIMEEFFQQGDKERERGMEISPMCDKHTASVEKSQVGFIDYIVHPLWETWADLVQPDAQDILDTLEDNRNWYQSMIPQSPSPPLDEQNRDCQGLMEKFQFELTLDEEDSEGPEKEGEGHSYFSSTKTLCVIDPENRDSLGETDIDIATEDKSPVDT

Row | Structure (SMILES) | IC50 [nM]
1 | NC1(C(=O)N[C@H]2CC[C@@H](n3c(=O)c4cc(F)cnc4n(-c4cccc(-c5ccccc5)c4)c3=O)CC2)CC1 [Example 344, 1-amino-N-[cis-4-(1-biphenyl-3-yl-6-fluoro-2,4-dioxo-1,4-dihydropyrido[2,3-d]pyrimidin-3(2H)-yl)cyclohexyl]cyclopropanecarboxamide] | 0.398
2 | O=C(N[C@H]1CC[C@@H](n2c(=O)c3cc(F)cnc3n(-c3cccc(-c4ccc(CC5CCNCC5)cc4)c3)c2=O)CC1)c1cn2cc(F)ccc2n1 [Example 345, 6-fluoro-N-{cis-4-[6-fluoro-2,4-dioxo-1-[4′-(piperidin-4-ylmethyl)biphenyl-3-yl]-1,4-dihydropyrido[2,3-d]pyrimidin-3(2H)-yl]cyclohexyl}imidazo[1,2-a]pyridine-2-carboxamide] | 0.0316
3 | Cc1nc(C(=O)N[C@H]2CC[C@@H](n3c(=O)c4cc(F)cnc4n(-c4cccc(-c5ccc(CN6CCCNCC6)cc5)c4)c3=O)CC2)cs1 [Example 349, N-{cis-4-[1-[4′-(1,4-diazepan-1-ylmethyl)biphenyl-3-yl]-6-fluoro-2,4-dioxo-1,4-dihydropyrido[2,3-d]pyrimidin-3(2H)-yl]cyclohexyl}-2-methyl-1,3-thiazole-4-carboxamide] | 0.02
4 | O=C(N[C@H]1CC[C@@H](n2c(=O)c3cc(F)cnc3n(-c3cccc(-c4ccc(CN5CCCNCC5)cc4)c3)c2=O)CC1)c1ccc2ccccc2n1 [Example 350, N-{cis-4-[1-[4′-(1,4-diazepan-1-ylmethyl)biphenyl-3-yl]-6-fluoro-2,4-dioxo-1,4-dihydropyrido[2,3-d]pyrimidin-3(2H)-yl]cyclohexyl} quinoline-2-carboxamide] | 0.0158
5 | CCCCc1ccc(C(=O)N[C@H]2CC[C@@H](n3c(=O)c4cc(F)cnc4n(-c4cccc(-c5ccc(CN6CCCNCC6)cc5)c4)c3=O)CC2)nc1 [Example 351, 5-butyl-N-{cis-4-[1-[4′-(1,4-diazepan-1-ylmethyl)biphenyl-3-yl]-6-fluoro-2,4-dioxo-1,4-dihydropyrido[2,3-d]pyrimidin-3(2H)-yl]cyclohexyl}pyridine-2-carboxamide] | 0.0316
6 | O=C(N[C@H]1CC[C@@H](n2c(=O)c3cc(F)cnc3n(-c3cccc(-c4ccc(CN5CCCNCC5)cc4)c3)c2=O)CC1)c1cnc2ccccc2n1 [Example 352, N-{cis-4-[1-[4′-(1,4-diazepan-1-ylmethyl)biphenyl-3-yl]-6-fluoro-2,4-dioxo-1,4-dihydropyrido[2,3-d]pyrimidin-3(2H)-yl]cyclohexyl} quinoxaline-2-carboxamide] | 0.0158
7 | O=C(N[C@H]1CC[C@@H](n2c(=O)c3cc(F)cnc3n(-c3cccc(-c4ccc(CN5CCCNCC5)cc4)c3)c2=O)CC1)c1cc2ccccc2cn1 [Example 353, N-{cis-4-[1-[4′-(1,4-diazepan-1-ylmethyl)biphenyl-3-yl]-6-fluoro-2,4-dioxo-1,4-dihydropyrido[2,3-d]pyrimidin-3(2H)-yl]cyclohexyl} isoquinoline-3-carboxamide] | 0.0316
8 | O=C(N[C@H]1CC[C@@H](n2c(=O)c3cc(F)cnc3n(-c3cccc(-c4ccc(CN5CCCNCC5)cc4)c3)c2=O)CC1)c1nc2ccccc2[nH]1 [Example 354, N-{cis-4-[1-[4′-(1,4-diazepan-1-ylmethyl)biphenyl-3-yl]-6-fluoro-2,4-dioxo-1,4-dihydropyrido[2,3-d]pyrimidin-3(2H)-yl]cyclohexyl}-1H-benzimidazole-2-carboxamide] | 0.0398
9 | O=C(N[C@H]1CC[C@@H](n2c(=O)c3cc(F)cnc3n(-c3cccc(-c4ccc(CN5CCCNCC5)cc4)c3)c2=O)CC1)c1cc(=O)c2ccccc2[nH]1 [Example 355, N-{cis-4-[1-[4′-(1,4-diazepan-1-ylmethyl)biphenyl-3-yl]-6-fluoro-2,4-dioxo-1,4-dihydropyrido[2,3-d]pyrimidin-3(2H)-yl]cyclohexyl}-4-oxo-1,4-dihydroquinoline-2-carboxamide] | 0.0501
10 | Cc1nc(C(=O)N[C@H]2CC[C@@H](n3c(=O)c4cc(F)cnc4n(-c4cccc(-c5ccc(CN6CCC(N7CCCCC7)CC6)cc5)c4)c3=O)CC2)cs1 [Example 357, N-{cis-4-[1-[4′-(1,4′-bipiperidin-1′-ylmethyl)biphenyl-3-yl]-6-fluoro-2,4-dioxo-1,4-dihydropyrido[2,3-d]pyrimidin-3(2H)-yl]cyclohexyl}-2-methyl-1,3-thiazole-4-carboxamide] | 0.0316
11 | CN1CCCN(Cc2ccc(-c3cccc(-n4c(=O)n([C@H]5CC[C@@H](NC(=O)c6cnc7ccccc7n6)CC5)c(=O)c5cc(F)cnc54)c3)cc2)CC1 [Example 358, N-{cis-4-[6-fluoro-1-{4′-[(4-methyl-1,4-diazepan-1-yl)methyl]biphenyl-3-yl}-2,4-dioxo-1,4-dihydropyrido[2,3-d]pyrimidin-3(2H)-yl]cyclohexyl} quinoxaline-2-carboxamide] | 0.0126
12 | CN1CCCN(Cc2ccc(-c3cccc(-n4c(=O)n([C@H]5CC[C@@H](NC(=O)c6nc7ccccc7[nH]c6=O)CC5)c(=O)c5cc(F)cnc54)c3)cc2)CC1 [Example 360, N-{cis-4-[6-fluoro-1-{4′-[(4-methyl-1,4-diazepan-1-yl)methyl]biphenyl-3-yl}-2,4-dioxo-1,4-dihydropyrido[2,3-d]pyrimidin-3(2H)-yl]cyclohexyl}-3-oxo-3,4-dihydroquinoxaline-2-carboxamide] | 0.0398
13 | Cc1cnc(C(=O)N[C@H]2CC[C@@H](n3c(=O)c4cc(F)cnc4n(-c4cccc(-c5ccc(CN6C[C@@H](C)N[C@@H](C)C6)cc5)c4)c3=O)CC2)cn1 [Example 361, N-{cis-4-[1-(4′-{[(3R,5S)-3,5-dimethylpiperazin-1-yl]methyl}biphenyl-3-yl)-6-fluoro-2,4-dioxo-1,4-dihydropyrido[2,3-d]pyrimidin-3(2H)-yl]cyclohexyl}-5-methylpyrazine-2-carboxamide] | 0.2
14 | Cc1cc(C)n2nc(C(=O)N[C@H]3CC[C@@H](n4c(=O)c5cc(F)cnc5n(-c5cccc(-c6ccc(CN7CCC(N8CCCCC8)CC7)cc6)c5)c4=O)CC3)cc2n1 [Example 362, N-{cis-4-[1-[4′-(1,4′-bipiperidin-1′-ylmethyl)biphenyl-3-yl]-6-fluoro-2,4-dioxo-1,4-dihydropyrido[2,3-d]pyrimidin-3(2H)-yl]cyclohexyl}-5,7-dimethylpyrazolo[1,5-a]pyrimidine-2-carboxamide] | 0.0501

Next, values leading:

Row | IC50 [nM] | Structure (SMILES)
15 | 0.126 | O=c1c2cc(F)cnc2n(-c2cccc(-c3cccc(O)c3CN3CCOCC3)c2)c(=O)n1[C@H]1CC[C@@H](NCc2cn3cc(F)ccc3n2)CC1 [Example 346, 6-Fluoro-3-(cis-4-{[(6-fluoroimidazo[1,2-a]pyridin-2-yl)methyl]amino}cyclohexyl)-1-[3′-hydroxy-2′-(morpholin-4-ylmethyl)biphenyl-3-yl]pyrido[2,3-d]pyrimidine-2,4(1H,3H)-dione]
16 | 0.0251 | Cc1cc(C(=O)N[C@H]2CC[C@@H](n3c(=O)c4cc(F)cnc4n(-c4cccc(-c5ccc(O)cc5CN(C)C)c4)c3=O)CC2)nn1C [Example 348, N-{cis-4-[1-{2′-[(dimethylamino)methyl]-4′-hydroxybiphenyl-3-yl}-6-fluoro-2,4-dioxo-1,4-dihydropyrido[2,3-d]pyrimidin-3(2H)-yl]cyclohexyl}-1,5-dimethyl-1H-pyrazole-3-carboxamide]
17 | 0.0631 | Cc1cccc(C(=O)N[C@H]2CC[C@@H](n3c(=O)c4cc(F)cnc4n(-c4cccc(-c5ccc(CN6CCCNCC6)cc5)c4)c3=O)CC2)n1 [Example 356, N-{cis-4-[1-[4′-(1,4-diazepan-1-ylmethyl)biphenyl-3-yl]-6-fluoro-2,4-dioxo-1,4-dihydropyrido[2,3-d]pyrimidin-3(2H)-yl]cyclohexyl}-6-methylpyridine-2-carboxamide]
18 | 0.0251 | CN1CCCN(Cc2ccc(-c3cccc(-n4c(=O)n([C@H]5CC[C@@H](NC(=O)c6cc7ccccc7cn6)CC5)c(=O)c5cc(F)cnc54)c3)cc2)CC1 [Example 359, N-{cis-4-[6-fluoro-1-{4′-[(4-methyl-1,4-diazepan-1-yl)methyl]biphenyl-3-yl}-2,4-dioxo-1,4-dihydropyrido[2,3-d]pyrimidin-3(2H)-yl]cyclohexyl} isoquinoline-3-carboxamide]
19 | 6.31 | N[C@H]1CC[C@@H](n2c(=O)c3cc(F)cnc3n(-c3cccc(-c4ccc(O)cc4CN4CCNC(=O)CC4)c3)c2=O)CC1 [Example 369, 3-(cis-4-aminocyclohexyl)-6-fluoro-1-{4′-hydroxy-2′-[(5-oxo-1,4-diazepan-1-yl)methyl]biphenyl-3-yl}pyrido[2,3-d]pyrimidine-2,4(1H,3H)-dione]
20 | 0.501 | Cc1nc2ccccn2c1CN[C@H]1CC[C@@H](n2c(=O)c3cc(F)cnc3n(-c3cccc(-c4ccc(O)cc4CN4CCOCC4)c3)c2=O)CC1 [Example 370, 6-fluoro-1-[4′-hydroxy-2′-(morpholin-4-ylmethyl)biphenyl-3-yl]-3-(cis-4-{[(2-methylimidazo[1,2-a]pyridin-3-yl)methyl]amino}cyclohexyl)pyrido[2,3-d]pyrimidine-2,4(1H,3H)-dione]
21 | 0.398 | O=c1c2cc(F)cnc2n(-c2cccc(-c3ccc(O)cc3CN3CCCOCC3)c2)c(=O)n1[C@H]1CC[C@@H](NCc2ncc3ccccn23)CC1 [Example 371, 6-fluoro-1-[4′-hydroxy-2′-(1,4-oxazepan-4-ylmethyl)biphenyl-3-yl]-3-{cis-4-[(imidazo[1,5-a]pyridin-3-ylmethyl)amino]cyclohexyl}pyrido[2,3-d]pyrimidine-2,4(1H,3H)-dione]
22 | 0.631 | O=c1c2cc(F)cnc2n(-c2cccc(-c3ccc(O)cc3CN3CCCOCC3)c2)c(=O)n1[C@H]1CC[C@@H](NCc2cccn3ccnc23)CC1 [Example 372, 6-fluoro-1-[4′-hydroxy-2′-(1,4-oxazepan-4-ylmethyl)biphenyl-3-yl]-3-{cis-4-[(imidazo[1,2-a]pyridin-8-ylmethyl)amino]cyclohexyl}pyrido[2,3-d]pyrimidine-2,4(1H,3H)-dione]
